The molecules below were run on HCV replication (assay: HCV replicon assay (luciferase) in ET (Huh-lucubineo-ET) cell line). Settings: Hepatitis C virus, tested at 5 μM; ET replicon cells; luciferase activity measured 48-72 hours later; relative to no compound control.
Type: cell-based
Protocol: A cell line, ET (Huh-lucubineo-ET) was used for screening of compounds of the present invention for inhibiting HCV replication. The ET cell line was stably transfected with RNA transcripts harboring a I389luc-ubi-neo/NS3-3′/ET; replicon with firefly luciferase-ubiquitin-neomycin phosphotransferase fusion protein and EMCV-IRES driven NS3-5B polyprotein containing the cell culture adaptive mutations (E1202G; T12801; K1846T) (Krieger at al, 2001 and unpublished). The ET cells were grown in DMEM (Dulbeco's Modified Eagle's Medium), supplemented with 10% fetal calf serum, 2 mM Glutamine, Penicillin (100 IU/mL)/Streptomycin (100 μg/mL), 1× nonessential amino acids, and 250 μg/mL G418 (“Geneticin”). They were all available through Life Technologies (Bethesda, Md.). The cells were plated at 0.5-1.0×10^4 cells/well in the 96 well plates and incubated for 24 hrs before adding testing compounds. Then the compounds were added to the cells to achieve a final concentration of 0.1 nM to 50 μM and a final DMSO concentration of 0.5%. Luciferase activity were measured 48-72 hours later by adding a lysis buffer and the substrate (Catalog number Glo-lysis buffer E2661 and Bright-Glo luciferase system E2620 Promega, Madison, Wis.). Cells should not be too confluent during the assay. Percent inhibition of replication was plotted relative to no compound control. Under the same condition, cytotoxicity of the compounds was determined using cell proliferation reagent, WST-1 (Roche, Germany). The compounds showing antiviral activities, but no significant cytotoxicities were chosen to determine EC50 and TC50. For these determinations, a 10 point 2-fold serial dilution for each compound was used, which spans a concentration range of 1000 fold. EC50 and similarly TC50 values were calculated by fitting % inhibition at each concentration to the following equation:
% inhibition=100%/[(IC50/[I])^b+1]
where b is Hill's coefficient.
In some preferred embodiments compounds of Formula I will have a % inhibition of at least 20% when tested at 5 μM. In other embodiments the compounds of Formula I will have a % inhibition of at least 50% when tested at 5 μM.

Row | Structure (SMILES) | inhibition at 5 µM
1 | CC(C)(C)NC(=O)c1ccc(-c2csc(NC(=O)[C@@H]3CSC(c4ccncc4)N3C(=O)OCc3ccccc3)n2)cc1 (stereo partly shown) [Compound 7041, 4-[4-(4-tert-Butyl-carbamoyl-phenyl)-thiazol-2-ylcarbamoyl]-2-pyridin-4-yl-thiazolidine-3-carboxylic acid benzyl ester] | 100%
2 | O=C(NC1CC1)c1ccc(-c2csc(NC(=O)[C@@H]3COC(c4ccccc4)N3C(=O)OCc3ccccc3)n2)cc1 (stereo partly drawn) [Compound 7046, (S)-4-[4-(4-Cyclopropylcarbamoyl-phenyl)-thiazol-2-ylcarbamoyl]-2-phenyl-oxazolidine-3-carboxylic acid benzyl ester] | 99.1%
3 | CC(C)(C)OC(=O)N1C[C@H](c2ccccc2)C[C@H]1C(=O)Nc1nc(-c2ccc(C(=O)NC3CC3)cc2)cs1 [Compound 7038, (2S,4S)-2-[4-(4-Cyclopropylcarbamoyl-phenyl)-thiazol-2-ylcarbamoyl]-4-phenyl-pyrrolidine-1-carboxylic acid tert-butyl ester] | 48.4%
4 | O=C(NC1CC1)c1ccc(-c2csc(NC(=O)[C@@H]3CSC(C4CCOC4)N3C(=O)OCc3ccccc3)n2)cc1 (stereo partly shown) [Compound 7122, 4-[4-(4-Cyclopropylcarbamoyl-phenyl)-thiazol-2-ylcarbamoyl]-2-(tetrahydro-furan-3-yl)-thiazolidine-3-carboxylic acid benzyl ester] | 100%
5 | N#Cc1cccc(C2OC[C@@H](C(=O)Nc3nc(-c4ccc(C(=O)NC5CC5)cc4)cs3)N2C(=O)OCc2ccccc2)c1 (stereo in doubt) [Compound 7081, 2-(3-Cyano-phenyl)-4-[4-(4-cyclopropylcarbamoyl-phenyl)-thiazol-2-ylcarbamoyl]-oxazolidine-3-carboxylic acid benzyl ester] | 100%
6 | C=C1C[C@@H](C(=O)Nc2nc(-c3ccc(C(=O)NC4CC4)cc3)cs2)N(C(=O)OC(C)(C)C)C1 [Compound 7040, (S)-2-[4-(4-Cyclopropylcarbamoyl-phenyl)-thiazol-2-ylcarbamoyl]-4-methylene-pyrrolidine-1-carboxylic acid tert-butyl ester] | 89.9%
7 | O=C(NC1CCCC1)c1ccc(-c2csc(NC(=O)[C@@H]3CSC(c4ccncc4)N3C(=O)OCc3ccccc3)n2)cc1 (stereo partly shown) [Compound 7012, 4-[4-(4-Cyclopentylcarbamoyl-phenyl)-thiazol-2-ylcarbamoyl]-2-pyridin-4-yl-thiazolidine-3-carboxylic acid benzyl ester] | 98.8%
8 | O=C(NC1CC1)c1ccc(-c2csc(NC(=O)[C@@H]3Cc4ccccc4CN3C(=O)OCc3ccccc3)n2)cc1 [Compound 7002, (S)-3-[4-(4-Cyclopropylcarbamoyl-phenyl)-thiazol-2-ylcarbamoyl]-3,4-dihydro-1H-isoquinoline-2-carboxylic acid benzyl ester] | 97.5%
9 | CC(C)(C)OC(=O)N1C(C2CCOCC2)SC[C@H]1C(=O)Nc1nc(-c2ccc(C(=O)NC3CC3)cc2)cs1 (stereo partly shown) [Compound 7090, 4-[4-(4-Cyclopropylcarbamoyl-phenyl)-thiazol-2-ylcarbamoyl]-2-(tetrahydropyran-4-yl)-thiazolidine-3-carboxylic acid tert-butyl ester] | 99.7%
10 | CN(C)C(=O)CCC1SC[C@@H](C(=O)Nc2nc(-c3ccc(C(=O)NC4CC4)cc3)cs2)N1C(=O)OCc1ccccc1 (stereo partly shown) [Compound 7118, 4-[4-(4-Cyclopropylcarbamoyl-phenyl)-thiazol-2-ylcarbamoyl]-2-(2-dimethylcarbamoyl-ethyl)-thiazolidine-3-carboxylic acid benzyl ester] | 99.9%
11 | O=C(Nc1ccccc1)c1ccc(NC(=O)[C@@H]2CSC(c3ccncc3)N2C(=O)OCc2ccccc2)cc1 (stereo partly shown) [Compound 7076, 4-(4-Phenylcarbamoyl-phenylcarbamoyl)-2-pyridin-4-yl-thiazolidine-3-carboxylic acid benzyl ester] | 3.9%
12 | O=C(NC1CC1)c1ccc(-c2csc(NC(=O)C3Cc4ccccc4N3C(=O)OCc3ccccc3)n2)cc1 (stereo not shown) [Compound 7019, 2-[4-(4-Cyclopropylcarbamoyl-phenyl)-thiazol-2-ylcarbamoyl]-2,3-dihydro-indole-1-carboxylic acid benzyl ester] | 98.3%
13 | CC(=O)c1ccc(C2SC[C@@H](C(=O)Nc3nc(-c4ccc(C(=O)NC5CC5)cc4)cs3)N2C(=O)OCc2ccccc2)cc1 (mixture of isomers) [Compound 7109, 2-(4-Acetyl-phenyl)-4-[4-(4-cyclopropylcarbamoyl-phenyl)-thiazol-2-ylcarbamoyl]-thiazolidine-3-carboxylic acid benzyl ester] | 100%
14 | O=C(NC1CC1)c1ccc(-c2csc(NC(=O)[C@@H]3CC[C@H](c4ccncc4)N3C(=O)OCc3ccccc3)n2)cc1 [Compound 7003, (2S,5R)-2-[4-(4-Cyclopropylcarbamoyl-phenyl)-thiazol-2-ylcarbamoyl]-5-pyridin-4-yl-pyrrolidine-1-carboxylic acid benzyl ester] | 100%
15 | O=C(Cc1cccc(NC(=O)[C@@H]2CSC(c3ccncc3)N2C(=O)OCc2ccccc2)c1)NCc1ccccc1 (stereo partly shown) [Compound 7116, 4-[3-(Benzylcarbamoyl-methyl)-phenylcarbamoyl]-2-pyridin-4-yl-thiazolidine-3-carboxylic acid benzyl ester] | 84.9%
16 | O=C(O)c1ccc(C2SC[C@@H](C(=O)Nc3nc(-c4ccc(C(=O)NC5CC5)cc4)cs3)N2C(=O)OCc2ccccc2)cc1 (mixture of isomers) [Compound 7014, (R)-2-(4-Carboxy-phenyl)-4-[4-(4-cyclopropylcarbamoyl-phenyl)-thiazol-2-ylcarbamoyl]-thiazolidine-3-carboxylic acid benzyl ester] | 97.7%
17 | O=C(Nc1nc(-c2ccccc2)cs1)[C@@H]1CSC(c2ccncc2)N1C(=O)OCc1ccccc1 (stereo partly shown) [Compound 7026, 4-(4-Phenyl-thiazol-2-ylcarbamoyl)-2-pyridin-4-yl-thiazolidine-3-carboxylic acid benzyl ester] | 89.1%
18 | CC(=O)N1CCCC(C2SC[C@@H](C(=O)Nc3nc(-c4ccc(C(=O)NC5CC5)cc4)cs3)N2C(=O)OCc2ccccc2)C1 (mixture of isomers) [Compound 7133, 2-(1-Acetyl-piperidin-3-yl)-4-[4-(4-cyclopropylcarbamoyl-phenyl)-thiazol-2-ylcarbamoyl]-thiazolidine-3-carboxylic acid benzyl ester] | 100%
19 | CC(C)(C)OC(=O)N1[C@@H](c2ccccc2)CC[C@H]1C(=O)Nc1nc(-c2ccc(C(=O)NC3CC3)cc2)cs1 [Compound 7005, (2S,5R)-2-[4-(4-Cyclopropylcarbamoyl-phenyl)-thiazol-2-ylcarbamoyl]-5-phenyl-pyrrolidine-1-carboxylic acid tert-butyl ester] | 97.8%
20 | O=C(NC1CC1)c1ccc(-c2csc(NC(=O)[C@@H]3CSC(c4ccc(CN5CCOCC5)cc4)N3C(=O)OCc3ccccc3)n2)cc1 (stereo partly shown) [Compound 7087, 4-[4-(4-Cyclopropylcarbamoyl-phenyl)-thiazol-2-ylcarbamoyl]-2-(4-morpholin-4-ylmethyl-phenyl)-thiazolidine-3-carboxylic acid benzyl ester] | 99.6%
21 | COc1cccc(C2SC[C@@H](C(=O)Nc3nc(-c4ccc(C(=O)NC5CC5)cc4)cs3)N2C(=O)OCc2ccccc2)c1 (mixture of isomers) [Compound 7016, (R)-4-[4-(4-Cyclopropylcarbamoyl-phenyl)-thiazol-2-ylcarbamoyl]-2-(3-methoxy-phenyl)-thiazolidine-3-carboxylic acid benzyl ester] | 98.5%
22 | O=C(Nc1nc(-c2ccccc2)cs1)[C@@H]1CSC2(CCOCC2)N1C(=O)OCc1ccccc1 [Compound 7094, 3-(4-Phenyl-thiazol-2-ylcarbamoyl)-8-oxa-1-thia-4-aza-spiro[4.5]decane-4-carboxylic acid benzyl ester] | 88%
23 | O=C(NCc1ccc(NC(=O)[C@@H]2CSC(c3ccncc3)N2C(=O)OCc2ccccc2)cc1)c1ccccc1 (stereo in doubt) [Compound 7077, 4-[4-(Benzoylamino-methyl)-phenylcarbamoyl]-2-pyridin-4-yl-thiazolidine-3-carboxylic acid benzyl ester] | 2.1%
24 | NC(=O)c1cccc(NC(=O)[C@@H]2CSC(c3ccncc3)N2C(=O)OCc2ccccc2)c1 (stereo partly shown) [Compound 7127, 4-(3-carbamoyl-phenylcarbamoyl)-2-pyridin-4-yl-thiazolidine-3-carboxylic acid benzyl ester] | 25.7%
25 | O=C(Nc1cccnc1)c1ccc(-c2csc(NC(=O)[C@@H]3CSC4(CCOCC4)N3C(=O)OCc3ccccc3)n2)cc1 [Compound 7139, 3-{4-[4-(Pyridin-3-ylcarbamoyl)-phenyl]-thiazol-2-ylcarbamoyl}-8-oxa-1-thia-4-aza-spiro-[4.5]decane-4-carboxylic acid benzyl ester] | 100%

Reference: US20080181866A1, “Amido Anti-viral Compounds” (Genelabs Technologies, Inc., priority 2006, published 2008)
